# Measured values taken from US10759796B2, “CXCR4 inhibitors and uses thereof” (X4 Pharmaceuticals, Inc., priority 2016, dated 2020).
# Biological target: Jurkat cells expressing CXCR4 (Homo sapiens (Human), UniProt P61073)
# Assay: Chemokine (CXCL12-AF647) binding inhibition assay
# Details: CXCL12-AF647 25 ng/mL, read-out: IC50 CXCL-12 binding Jurkat
# Description: Chemokine (CXCL12-AF647) Binding Inhibition Assay
# Jurkat cells expressing CXCR4 were washed once with assay buffer (Hanks' balanced salt solution with 20 mM HEPES buffer and 0.2% bovine serum albumin, pH 7.4) and then incubated for 15 min at room temperature with the test compounds diluted in assay buffer at dose-dependent concentrations. Subsequently, CXCL12-AF647 (25 ng/mL) was added to the compound-incubated cells. The cells were incubated for 30 min at room temperature. Thereafter, the cells were washed twice in assay buffer, fixed in 1% paraformaldehyde in PBS, and analyzed on the FL4 channel of a FACSCalibur flow cytometer equipped with a 635-nm red diode laser (Becton Dickinson, San Jose, Calif., USA).
# The percentages of inhibition of CXCL12-AF647 binding were calculated according to the formula: [1−((MFI−MFINC)/(MFIPC−MFINC))]×100 where MFI is the mean fluorescence intensity of the cells incubated with CXCL12-AF647 in the presence of the inhibitor, MFINC is the mean fluorescence intensity measured in the negative control (i.e., autofluorescence of unlabeled cells), and MFIPC is the mean fluorescence intensity of the positive control (i.e., cells exposed to CXCL12-AF647 alone).
# Chain of Jurkat cells expressing CXCR4 (P61073 whole entry): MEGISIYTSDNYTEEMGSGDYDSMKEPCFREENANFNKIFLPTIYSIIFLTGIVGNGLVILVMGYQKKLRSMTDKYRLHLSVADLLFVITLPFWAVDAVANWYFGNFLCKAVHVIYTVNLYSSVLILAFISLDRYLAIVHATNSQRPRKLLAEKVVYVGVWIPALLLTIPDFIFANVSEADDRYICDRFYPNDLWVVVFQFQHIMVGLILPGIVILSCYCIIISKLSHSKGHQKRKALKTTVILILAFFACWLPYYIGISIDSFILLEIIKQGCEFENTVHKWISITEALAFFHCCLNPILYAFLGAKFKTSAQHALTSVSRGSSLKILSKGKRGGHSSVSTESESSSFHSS
row,SMILES,IC50
1,Cc1cccnc1[C@@H]1CCC[C@H](c2cn3c(N4CCN(C)CC4)ccc(N)c3n2)N1C [Compound I-76],0.01 to 100 nM
2,CO[C@@H](c1c([C@H]2CCC[C@@H](c3ncccc3C)N2C)nc2ccccn12)C1CCN(C)CC1 [Compound I-105],100 to 1000 nM
3,COc1cccnc1[C@@H]1CCC[C@H](c2nc3cccc(N4CCNC5(CC5)C4)n3c2Cl)N1 [Compound I-175],≥ 1000 nM
4,Cc1cccnc1[C@@H]1CCC[C@H](c2nc3ccccn3c2[C@@H](O)C2CCN(C)CC2)N1C [Compound I-54],0.01 to 100 nM
5,Cc1cccnc1[C@H]1CCC[C@@H](c2nc3cccc(N4CCN(C)CC4)n3c2C)N1 (stereo in doubt) [Compound I-192],0.01 to 100 nM
6,Cc1cccnc1[C@@H]1CCC[C@H](c2nc3cccc(N4CCN(C)CC4)n3c2COC(C)C)N1C [Compound I-48],0.01 to 100 nM
7,Cc1cccnc1[C@@H]1CCC[C@H](c2nc3cccc(N4CCN(C(C)C)CC4)n3c2CO)N1C [Compound I-50],0.01 to 100 nM
8,Cc1cccnc1[C@@H]1CCC[C@H](c2nc3ccccn3c2CN2CCN(C)CC2)N1C [Compound I-38],0.01 to 100 nM
9,Cc1cccnc1[C@@H]1CCC[C@H](c2cn3c(N4CCN(C(C)C)CC4)cccc3n2)N1C [Compound I-15],0.01 to 100 nM
10,Cc1cccnc1[C@@H]1CCC[C@H](c2cn3c(N4CCN(C)CC4)cccc3n2)N1C [Compound I-1],0.01 to 100 nM
11,CN(C)C1CCN(c2cccc3nc([C@H]4CCC[C@@H](c5ncccc5Cl)N4C)cn23)CC1 [Compound I-142],0.01 to 100 nM
12,Cc1cccnc1[C@@H]1CCC[C@H](c2nc3cccc(N4CCN(C(C)C)CC4)n3c2Cl)N1C [Compound I-92],0.01 to 100 nM

# Tested on: not listed separately
# Assay: in vitro
# Details: human, Caco-2, pH 7.4
# Description: Example 28: Caco-2 Permeability Assay
# The goal of this assay was to evaluate the intestinal absorption potential of drug candidates using Caco-2 cell lines.
# 1. Prewarm Prewarm HBSS Buffer in 37° C. water bath
# 2. Sonicate Take compounds from −20° C., sonicate for a few minutes (no less than 1 minute)
# HBSS buffer with 0.3% DMSO and 5 μM LY: add 150 μL DMSO and 50 μL LY (5 mM) into 50 ml HBSS buffer (pH 7.4).
# HBSS buffer with 0.1% DMSO and 5 μM LY: add 50 μL DMSO and 50 μL LY (5 mM) into 50 mL HBSS buffer (pH 7.4).
# HBSS buffer with 0.3% DMSO: add 150 μL DMSO into 50 ml HBSS buffer (pH 7.4).
# HBSS buffer with 0.1% DMSO: add 50 μL DMSO into 50 ml HBSS buffer (pH 7.4).
# Receiver Solution Buffer:
# Prepare HBSS buffer with 0.4% DMSO: add 200 μL DMSO into 50 ml HBSS buffer (pH 7.4).
# Prepare HBSS buffer with 0.4% DMSO and 5 μM LY: add 200 μL DMSO and 50 μL LY (5 mM) into 50 ml HBSS buffer (pH 7.4).
# 4. Measure TEER Take cell culture plate out of incubator, wash the cell monolayers with HBSS buffer, and then measure TEER values at Rm temperature. 5. Centrifuge Centrifuge the compound solution (from step 3) at 4000 rpm for 5 min before loading to donor chambers. 6. Dosing Add solution based on the volumes listed in the following table (make sure to take extra 100 μL of donor sample for TO as Backup).
# 7. Apical LYT0 Samples To determine LY concentration in the apical chember, take 100 μL sample from apical chambers into an opaque plate for LYT0. 8. Prewarm Prewarm apical and basolateral plates at 37° C. for about 5 min, then begin transport by placing the apical plate onto basolateral plate. 9. Incubation Keep the plates in incubator at 37° C. for 90 min. 10. Standard Curve Preparation
# For 300 μM compound solution, add 6 μL of compound stock solution into 192 μL of MeOH/H2O (1:1).
# Prepare Working Solution in MeOH/H2O (1:1)
# 3 μL (20×)+57 μL of 0.4% DMSO HBSS+60 μL ACN with IS (Osalmid or Imipramine) - - - 120 μL (1×)
# 11. Transport Termination Separate the apical plate from the basolateral plate after 90-min incubation.
# 12. Measure LY Take 100 μL samples from basolateral plate to an opaque plate as LYT90.
# 13. Measure LY concentrations for LYT0 and LYT90 by Fluorometer (at excitation of 485 nm/emission of 535 nm).
# Study details: Test concentration 10 μM
# Test systems: Caco-2/HBSS solution
# Incubation conditions: 0, 90 min at 37° C.
# Sample size: Duplicates (n=2)
# Bioanalytical method: LC-MS/MS
# For Millicell-24 Cell Culture Plates: surface area of the membrane=0.7 cm^2, VA=0.8 mL (A-to-B) or 0.4 mL (B-to-A)
# 1. Papp values were calculated based on calculated concentrations.
# The compound numbers correspond to the compound numbers in Table 1.
SMILES,"Papp A→B at 90 min, 10 μM","Papp B→A at 90 min, 10 μM","efflux ratio at 90 min, 10 μM"
Cc1cccnc1[C@@H]1CCC[C@H](c2cn3c(N4CCN(C)CC4)ccc(N)c3n2)N1C [Compound I-76],0.1 to 10 ×10⁻⁶ cm/s,10 to 30 ×10⁻⁶ cm/s,10 to 30
CO[C@@H](c1c([C@H]2CCC[C@@H](c3ncccc3C)N2C)nc2ccccn12)C1CCN(C)CC1 [Compound I-105],0.1 to 10 ×10⁻⁶ cm/s,10 to 30 ×10⁻⁶ cm/s,> 30
COc1cccnc1[C@@H]1CCC[C@H](c2nc3cccc(N4CCNC5(CC5)C4)n3c2Cl)N1 [Compound I-175],0.1 to 10 ×10⁻⁶ cm/s,10 to 30 ×10⁻⁶ cm/s,0.1 to 10
Cc1cccnc1[C@@H]1CCC[C@H](c2nc3ccccn3c2[C@@H](O)C2CCN(C)CC2)N1C [Compound I-54],0.1 to 10 ×10⁻⁶ cm/s,0.1 to 10 ×10⁻⁶ cm/s,> 30
Cc1cccnc1[C@H]1CCC[C@@H](c2nc3cccc(N4CCN(C)CC4)n3c2C)N1 (stereo in doubt) [Compound I-192],0.1 to 10 ×10⁻⁶ cm/s,10 to 30 ×10⁻⁶ cm/s,0.1 to 10
Cc1cccnc1[C@@H]1CCC[C@H](c2nc3cccc(N4CCN(C)CC4)n3c2COC(C)C)N1C [Compound I-48],0.1 to 10 ×10⁻⁶ cm/s,10 to 30 ×10⁻⁶ cm/s,0.1 to 10
Cc1cccnc1[C@@H]1CCC[C@H](c2nc3cccc(N4CCN(C(C)C)CC4)n3c2CO)N1C [Compound I-50],0.1 to 10 ×10⁻⁶ cm/s,10 to 30 ×10⁻⁶ cm/s,10 to 30
Cc1cccnc1[C@@H]1CCC[C@H](c2nc3ccccn3c2CN2CCN(C)CC2)N1C [Compound I-38],0.1 to 10 ×10⁻⁶ cm/s,> 30 ×10⁻⁶ cm/s,> 30
Cc1cccnc1[C@@H]1CCC[C@H](c2cn3c(N4CCN(C(C)C)CC4)cccc3n2)N1C [Compound I-15],0.1 to 10 ×10⁻⁶ cm/s,10 to 30 ×10⁻⁶ cm/s,0.1 to 10
Cc1cccnc1[C@@H]1CCC[C@H](c2cn3c(N4CCN(C)CC4)cccc3n2)N1C [Compound I-1],0.1 to 10 ×10⁻⁶ cm/s,10 to 30 ×10⁻⁶ cm/s,0.1 to 10
CN(C)C1CCN(c2cccc3nc([C@H]4CCC[C@@H](c5ncccc5Cl)N4C)cn23)CC1 [Compound I-142],0.1 to 10 ×10⁻⁶ cm/s,10 to 30 ×10⁻⁶ cm/s,0.1 to 10
Cc1cccnc1[C@@H]1CCC[C@H](c2nc3cccc(N4CCN(C(C)C)CC4)n3c2Cl)N1C [Compound I-92],0.1 to 10 ×10⁻⁶ cm/s,0.1 to 10 ×10⁻⁶ cm/s,0.1 to 10

# Biological target: CXCR-4 transfected U87 cell line (U87.CXCR4) (Homo sapiens (Human), UniProt P61073)
# Assay: Intracellular CXCL-12-induced calcium mobilization assay (FLIPR)
# Type: cell-based
# Details: U87.CXCR4 cells, CXCL-12 25-50 ng/mL; read-out: IC50 CXCL-12 Ca2+ flux U87.CXCR4+
# Description: Example 28: REGA Screening Assay
# Intracellular CXCL-12-Induced Calcium Mobilization Assay
# Intracellular calcium mobilization induced by chemokines or chemokine-derived peptides were evaluated using a calcium responsive fluorescent probe and a FLIPR system. The CXCR-4 transfected U87 cell line (U87.CXCR4) cells were seeded in gelatine-coated black-wall 96-well plates at 20,000 cells per well and incubated for 12 hours. Cells were then loaded with the fluorescent calcium probe Fluo-2 acetoxymethyl at 4 μM final concentration in assay buffer (Hanks' balanced salt solution with 20 mM HEPES buffer and 0.2% bovine serum albumin, pH 7.4) for 45 min at 37° C. The intracellular calcium mobilization induced by the CXCL-12 (25-50 ng/mL) was then measured at 37° C. by monitoring the fluorescence as a function of time in all the wells simultaneously using a fluorometric imaging plate reader (FLIPR Tetra, Molecular Devices).
# Chain of CXCR-4 transfected U87 cell line (U87.CXCR4) (P61073 whole entry): as above
row,SMILES,IC50
1,Cc1cccnc1[C@@H]1CCC[C@H](c2cn3c(N4CCN(C)CC4)ccc(N)c3n2)N1C [Compound I-76],0.01 to 100 nM
2,CO[C@@H](c1c([C@H]2CCC[C@@H](c3ncccc3C)N2C)nc2ccccn12)C1CCN(C)CC1 [Compound I-105],≥ 1000 nM
3,COc1cccnc1[C@@H]1CCC[C@H](c2nc3cccc(N4CCNC5(CC5)C4)n3c2Cl)N1 [Compound I-175],≥ 1000 nM
4,Cc1cccnc1[C@@H]1CCC[C@H](c2nc3ccccn3c2[C@@H](O)C2CCN(C)CC2)N1C [Compound I-54],0.01 to 100 nM
5,Cc1cccnc1[C@H]1CCC[C@@H](c2nc3cccc(N4CCN(C)CC4)n3c2C)N1 (stereo in doubt) [Compound I-192],0.01 to 100 nM
6,Cc1cccnc1[C@@H]1CCC[C@H](c2nc3cccc(N4CCN(C)CC4)n3c2COC(C)C)N1C [Compound I-48],100 to 1000 nM
7,Cc1cccnc1[C@@H]1CCC[C@H](c2nc3cccc(N4CCN(C(C)C)CC4)n3c2CO)N1C [Compound I-50],0.01 to 100 nM
8,Cc1cccnc1[C@@H]1CCC[C@H](c2nc3ccccn3c2CN2CCN(C)CC2)N1C [Compound I-38],0.01 to 100 nM
9,Cc1cccnc1[C@@H]1CCC[C@H](c2cn3c(N4CCN(C(C)C)CC4)cccc3n2)N1C [Compound I-15],0.01 to 100 nM
10,Cc1cccnc1[C@@H]1CCC[C@H](c2cn3c(N4CCN(C)CC4)cccc3n2)N1C [Compound I-1],0.01 to 100 nM
11,CN(C)C1CCN(c2cccc3nc([C@H]4CCC[C@@H](c5ncccc5Cl)N4C)cn23)CC1 [Compound I-142],0.01 to 100 nM
12,Cc1cccnc1[C@@H]1CCC[C@H](c2nc3cccc(N4CCN(C(C)C)CC4)n3c2Cl)N1C [Compound I-92],0.01 to 100 nM
